Test results as given in ChEMBL document CHEMBL1150496, “Synthesis and biological activity of C-5 modified derivatives of (+)-AJ76 and (+)-UH232: Increased dopamine D3 receptor preference and improved pharmacokinetic properties” (Bioorg Med Chem Lett, 1994).
Calls of active or inactive are those of the source. The calls are words filed in the database; no cut-off is given here.

Tests used:
Rattus norvegicus [1] = assay: In vivo locomotor activity (LMA) in habituated rats at a dose of 200 umol/kg, sc, for 60 mins after 60 min habituation period; type: functional
[2] = Half-life was estimated from the elimination phase of the oral [C] vs time curves in 4 rats; type: ADME, organism-based; conditions: rat, in vivo
D(3) dopamine receptor [3] = target: D(3) dopamine receptor (Homo sapiens, UniProt P35462); assay: Binding affinity was measured at cloned mammalian dopamine D3 receptor expressed in CHO-K1 cells (using [3H]- spiperone); type: cell-based
D(3) dopamine receptor (Homo sapiens, UniProt P35462), sequence (P35462 whole entry): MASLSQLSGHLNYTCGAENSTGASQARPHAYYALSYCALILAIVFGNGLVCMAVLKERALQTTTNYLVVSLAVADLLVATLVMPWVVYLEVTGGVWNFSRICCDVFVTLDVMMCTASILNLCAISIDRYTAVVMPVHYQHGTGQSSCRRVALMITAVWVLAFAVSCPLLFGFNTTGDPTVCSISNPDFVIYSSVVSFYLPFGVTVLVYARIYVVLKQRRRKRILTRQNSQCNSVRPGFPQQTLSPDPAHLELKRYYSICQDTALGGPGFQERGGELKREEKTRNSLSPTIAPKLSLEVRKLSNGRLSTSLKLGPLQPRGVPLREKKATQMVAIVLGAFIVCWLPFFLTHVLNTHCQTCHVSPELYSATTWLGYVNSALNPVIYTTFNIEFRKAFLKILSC

D(4) dopamine receptor [4] = target: T1, D(4) dopamine receptor (Homo sapiens, UniProt P21917); assay: Binding affinity was measured at cloned mammalian dopamine D4 receptor expressed in CHO-K1 cells (using [3H]- spiperone); type: cell-based
T1 sequence (P21917 whole entry): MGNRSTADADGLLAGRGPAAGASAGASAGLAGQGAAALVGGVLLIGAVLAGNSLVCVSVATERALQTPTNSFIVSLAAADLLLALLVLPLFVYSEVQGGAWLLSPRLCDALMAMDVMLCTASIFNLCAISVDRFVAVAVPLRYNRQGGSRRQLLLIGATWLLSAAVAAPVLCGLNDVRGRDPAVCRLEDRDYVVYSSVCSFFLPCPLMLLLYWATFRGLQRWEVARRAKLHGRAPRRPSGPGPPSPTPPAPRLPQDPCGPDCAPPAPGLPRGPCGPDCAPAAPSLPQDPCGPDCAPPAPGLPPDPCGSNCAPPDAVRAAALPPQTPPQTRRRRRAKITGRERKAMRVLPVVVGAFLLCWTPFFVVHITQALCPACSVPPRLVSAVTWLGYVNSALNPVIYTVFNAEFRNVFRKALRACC

[5] = target: 5-hydroxytryptamine receptor 1A (Homo sapiens, UniProt P08908); assay: (§1) Binding affinity was measured at cloned mammalian 5-HT1A receptor expressed in CHO-K1 cells (using [3H]8-OH-DPAT ); type: cell-based
[6] = In vivo percent of absolute bioavailability obtained from blood plasma levels analyzed by means of GC/MS (dose 5 uM/kg i.v. and 40 uM/kg, p.o.); type: ADME, organism-based; conditions: rat, po
Rattus norvegicus [7] = assay: In vivo HVA level was measured in killed rat striatal brain regions at a dose of 200 umol/kg, sc; type: functional
D(2) dopamine receptor [8] = target: T2, D(2) dopamine receptor (Homo sapiens, UniProt P14416); assay: Binding affinity was measured at cloned mammalian dopamine D2 receptor expressed in CHO-K1 cells (using [3H]U-86170); type: cell-based
T2 sequence (P14416 whole entry): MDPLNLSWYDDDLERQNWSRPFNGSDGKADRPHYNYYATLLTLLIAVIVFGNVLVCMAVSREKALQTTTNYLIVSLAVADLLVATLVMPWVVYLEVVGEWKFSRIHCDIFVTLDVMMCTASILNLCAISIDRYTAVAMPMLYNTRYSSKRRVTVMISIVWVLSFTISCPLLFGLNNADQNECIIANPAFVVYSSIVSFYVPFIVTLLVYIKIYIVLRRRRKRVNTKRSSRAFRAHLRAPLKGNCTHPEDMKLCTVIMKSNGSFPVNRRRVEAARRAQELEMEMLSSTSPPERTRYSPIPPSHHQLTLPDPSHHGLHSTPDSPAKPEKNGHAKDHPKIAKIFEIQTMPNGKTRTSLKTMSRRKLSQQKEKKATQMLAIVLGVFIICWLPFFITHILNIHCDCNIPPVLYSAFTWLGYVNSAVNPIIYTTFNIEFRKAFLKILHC

Rattus norvegicus [9] = assay: In vivo 5-HIAA level was measured in killed rat limbic brain regions at a dose of 200 umol/kg, sc; type: functional, Limbic system
Rattus norvegicus [10] = assay: In vivo DOPAC level was measured in killed rat striatal brain regions at a dose of 200 umol/kg, sc; type: functional
Rattus norvegicus [11] = assay: In vivo 5-HIAA level was measured in killed rat limbic brain regions at a dose of 25 umol/kg, sc; type: functional, Limbic system
[12] = target: D(3) dopamine receptor (Rattus norvegicus) (UniProt P19020); assay: Percent inhibition against dopamine D3 receptor at a concentration of 1 umol/L
D(3) dopamine receptor (Rattus norvegicus), sequence (P19020 whole entry): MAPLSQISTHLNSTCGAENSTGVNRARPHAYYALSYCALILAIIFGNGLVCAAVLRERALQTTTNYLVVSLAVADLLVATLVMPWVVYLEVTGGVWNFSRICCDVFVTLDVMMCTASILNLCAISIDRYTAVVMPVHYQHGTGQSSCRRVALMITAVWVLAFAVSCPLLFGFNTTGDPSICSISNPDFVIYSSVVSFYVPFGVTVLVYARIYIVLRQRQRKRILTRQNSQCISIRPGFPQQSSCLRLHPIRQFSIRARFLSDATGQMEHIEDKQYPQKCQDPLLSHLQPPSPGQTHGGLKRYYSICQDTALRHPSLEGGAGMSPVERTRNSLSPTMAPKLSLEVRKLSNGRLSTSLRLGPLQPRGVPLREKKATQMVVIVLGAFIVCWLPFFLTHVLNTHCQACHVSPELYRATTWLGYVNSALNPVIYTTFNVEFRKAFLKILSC

Rattus norvegicus [13] = assay: In vivo DOPAC level was measured in killed rat striatal brain regions at a dose of 25 umol/kg, sc; type: functional
D(2) dopamine receptor [14] = target: T2, D(2) dopamine receptor; assay: Percent inhibition against dopamine D2 receptor at a concentration of 1 umol/L
Rattus norvegicus [15] = assay: In vivo locomotor activity (LMA) in habituated rats at a dose of 25 umol/kg, sc, for 60 mins after 60 min habituation period; type: functional
Rattus norvegicus [16] = assay: In vivo locomotor activity (LMA) in habituated rats at a dose of 100 umol/kg, sc, for 60 mins after 60 min habituation period; type: functional; parameters: unit not given here
[17] = target: T3, 5-hydroxytryptamine receptor 1A (Homo sapiens, UniProt P08908); assay: as §1; type: cell-based; remark: listed apart in the source
T3 sequence (P08908 whole entry): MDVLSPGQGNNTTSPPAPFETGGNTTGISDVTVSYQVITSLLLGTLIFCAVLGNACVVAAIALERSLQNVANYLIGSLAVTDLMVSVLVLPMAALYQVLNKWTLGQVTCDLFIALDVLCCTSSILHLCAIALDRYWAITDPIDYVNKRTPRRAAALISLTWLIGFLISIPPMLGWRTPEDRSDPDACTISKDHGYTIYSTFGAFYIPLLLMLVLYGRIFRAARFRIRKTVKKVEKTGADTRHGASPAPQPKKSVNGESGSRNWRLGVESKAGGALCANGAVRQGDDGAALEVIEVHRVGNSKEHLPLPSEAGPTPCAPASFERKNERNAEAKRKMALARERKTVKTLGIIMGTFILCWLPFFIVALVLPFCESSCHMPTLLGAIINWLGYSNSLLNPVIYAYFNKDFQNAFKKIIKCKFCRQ

Rattus norvegicus [18] = assay: In vivo HVA level was measured in killed rat striatal brain regions at a dose of 100 umol/kg, sc; type: functional; parameters: unit not given here
[19] = target: T4, D(4) dopamine receptor (Homo sapiens) (UniProt P21917); assay: Percent inhibition against dopamine D4 receptor at a concentration of 1 umol/L
T4 sequence (whole entry): T1 sequence (P21917 whole entry)

Rattus norvegicus [20] = assay: In vivo DOPAC level was measured in killed rat striatal brain regions at a dose of 100 umol/kg, sc; type: functional; parameters: unit not given here
Rattus norvegicus [21] = assay: In vivo HVA level was measured in killed rat striatal brain regions at a dose of 25 umol/kg, sc; type: functional
D(2) dopamine receptor [22] = target: D(2) dopamine receptor (Rattus norvegicus, UniProt P61169); assay: Binding affinity was measured from rat striatal membrane using [3H]-spiperone at D2 receptors
D(2) dopamine receptor (Rattus norvegicus, UniProt P61169), sequence (P61169 whole entry): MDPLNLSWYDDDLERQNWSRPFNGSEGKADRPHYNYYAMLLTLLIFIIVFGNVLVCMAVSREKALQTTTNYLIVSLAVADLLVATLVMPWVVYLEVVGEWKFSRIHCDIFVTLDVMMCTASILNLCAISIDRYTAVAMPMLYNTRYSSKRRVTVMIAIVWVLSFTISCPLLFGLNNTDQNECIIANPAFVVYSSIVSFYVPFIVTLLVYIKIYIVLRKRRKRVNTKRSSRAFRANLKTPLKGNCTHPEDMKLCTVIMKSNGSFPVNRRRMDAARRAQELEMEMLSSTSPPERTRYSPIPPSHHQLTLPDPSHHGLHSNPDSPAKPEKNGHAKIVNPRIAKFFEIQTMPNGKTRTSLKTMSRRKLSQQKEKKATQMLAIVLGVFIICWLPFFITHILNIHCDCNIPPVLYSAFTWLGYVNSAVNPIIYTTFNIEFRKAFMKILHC

D(4) dopamine receptor [23] = target: T1, D(4) dopamine receptor; assay: Binding affinity was measured at cloned mammalian dopamine D4 receptor expressed in CHO-K1 cells (using [3H]- spiperone); NA means inactive; type: cell-based
Rattus norvegicus [24] = assay: In vivo 5-HIAA level was measured in killed rat limbic brain regions at a dose of 100 umol/kg, sc; type: functional, Limbic system; parameters: unit not given here
D(2) dopamine receptor [25] = target: T2, D(2) dopamine receptor; assay: Binding affinity was measured at cloned mammalian dopamine D2 receptor expressed in CHO-K1 cells (using [3H]U-86,170); NA means Inactive; type: cell-based
D(3) dopamine receptor [26] = target: D(3) dopamine receptor (Rattus norvegicus, UniProt P19020); assay: Binding affinity was measured at cloned mammalian dopamine D3 receptor expressed in CHO-K1 cells (using [3H]- spiperone); NA means inactive; type: cell-based
D(3) dopamine receptor (Rattus norvegicus, UniProt P19020), sequence (P19020 whole entry): as the sequence (P19020 whole entry) above

Rattus norvegicus [27] = assay: In vivo 5-HIAA level was measured in killed rat limbic brain regions at a dose of 100 umol/kg, oral; type: functional, Limbic system
Rattus norvegicus [28] = assay: In vivo HVA level was measured in killed rat striatal brain regions at a dose of 100 umol/kg, oral.; type: functional
Rattus norvegicus [29] = assay: In vivo locomotor activity (LMA) in habituated rats at a dose of 100 umol/kg, oral, for 60 mins after 60 min habituation period; type: functional
[30] = target: T5, 5-hydroxytryptamine receptor 1A (Rattus norvegicus, UniProt P19327); assay: Binding affinity was measured at 5-HT1A receptor in rat striatal membranes using [3H]8-OH-DPAT; type: cell membranes, Striatum, Membrane
T5 sequence (P19327 whole entry): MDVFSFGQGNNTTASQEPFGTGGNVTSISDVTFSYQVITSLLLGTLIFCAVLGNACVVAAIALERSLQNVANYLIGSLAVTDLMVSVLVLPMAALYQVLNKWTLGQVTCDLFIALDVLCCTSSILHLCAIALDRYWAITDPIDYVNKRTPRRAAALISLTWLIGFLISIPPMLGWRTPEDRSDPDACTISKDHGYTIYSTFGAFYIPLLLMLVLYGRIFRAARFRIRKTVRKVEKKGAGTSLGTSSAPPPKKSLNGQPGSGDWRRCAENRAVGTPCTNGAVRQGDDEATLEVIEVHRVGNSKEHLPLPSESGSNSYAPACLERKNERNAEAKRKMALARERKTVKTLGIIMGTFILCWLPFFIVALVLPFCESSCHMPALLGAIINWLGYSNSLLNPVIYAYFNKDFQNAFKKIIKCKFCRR

Rattus norvegicus [31] = assay: In vivo DOPAC level was measured in killed rat striatal brain regions at a dose of 100 umol/kg, oral.; type: functional
Rattus norvegicus [32] = assay: In vivo HVA level was measured in killed rat striatal brain regions at a dose of 50 umol/kg, sc; type: functional
Rattus norvegicus [33] = assay: In vivo locomotor activity (LMA) in habituated rats at a dose of 12.5 umol/kg, sc, for 60 mins after 60 min habituation period; type: functional
Rattus norvegicus [34] = assay: In vivo HVA level was measured in killed rat striatal brain regions at a dose of 12.5 umol/kg, sc; type: functional
Rattus norvegicus [35] = assay: In vivo 5-HIAA level was measured in killed rat limbic brain regions at a dose of 12.5 umol/kg, sc; type: functional, Limbic system
Rattus norvegicus [36] = assay: In vivo locomotor activity (LMA) in habituated rats at a dose of 50 umol/kg, sc, for 60 mins after 60 min habituation period; type: functional
Rattus norvegicus [37] = assay: In vivo DOPAC level was measured in killed rat striatal brain regions at a dose of 50 umol/kg, sc; type: functional
Rattus norvegicus [38] = assay: In vivo DOPAC level was measured in killed rat striatal brain regions at a dose of 12.5 umol/kg, sc; type: functional
Rattus norvegicus [39] = assay: In vivo 5-HIAA level was measured in killed rat limbic brain regions at a dose of 50 umol/kg, sc; type: functional, Limbic system
Rattus norvegicus [40] = organism: Rattus norvegicus; assay: In vitro stability relative to (+)-AJ76 in rat hepatocyte assay; In active; type: functional

Row | SMILES | Activity (Rattus norvegicus [1]) | half-life [2] [h] | Ki (D(3) dopamine receptor [3]) [µM] | Ki (D(4) dopamine receptor [4]) [µM] | Ki [5] [µM] | bioavailability [6] [%] | Activity (Rattus norvegicus [7]) | Ki (D(2) dopamine receptor [8]) [µM] | Activity (Rattus norvegicus [9]) | Activity (Rattus norvegicus [10]) | Activity (Rattus norvegicus [16]) | Activity (Rattus norvegicus [18]) | Activity (Rattus norvegicus [20]) | Activity (Rattus norvegicus [24]) | also measured
1 | CCCN(CCC)[C@@H]1CCc2c(OS(=O)(=O)C(F)(F)F)cccc2[C@@H]1C | <250 | 6 | 0.04 | 0.121 | > 3.45 | 9.4 | <163 | 0.546 | 94 | <146 | – | – | – | – | –
2 | CCCN[C@@H]1CCc2c(C#N)cccc2[C@@H]1C | – | – | – | – | – | – | – | – | – | – | 149 | <248 | <224 | 100 | Activity (Rattus norvegicus [11]): 102; inhibition [12]: < 50%; Activity (Rattus norvegicus [13]): 121; inhibition (D(2) dopamine receptor [14]): < 50%; Activity (Rattus norvegicus [15]): 165; Ki [17]: > 1.79 µM; inhibition [19]: < 50%; Activity (Rattus norvegicus [21]): 136; Ki (D(2) dopamine receptor [22]): 16.7 µM; Ki (D(4) dopamine receptor [23]): Not Active; Ki (D(2) dopamine receptor [25]): Not Active; Ki (D(3) dopamine receptor [26]): Not Active
3 | CCCN(CCC)[C@@H]1CCc2c(C(N)=O)cccc2[C@@H]1C | – | – | – | – | – | – | – | – | – | – | 169 | 128 | 135 | 113 | –
4 | CCCN(CCC)[C@@H]1CCc2c(C#N)cccc2[C@@H]1C | – | – | – | – | – | – | – | – | – | – | <334 | <241 | <213 | 95 | Activity (Rattus norvegicus [27]): 82; Activity (Rattus norvegicus [11]): 93; Activity (Rattus norvegicus [13]): <127; Activity (Rattus norvegicus [28]): <166; Activity (Rattus norvegicus [29]): <287; Activity (Rattus norvegicus [15]): 125; Ki [30]: 5.04 µM; Activity (Rattus norvegicus [21]): <134; Activity (Rattus norvegicus [31]): <128; Ki (D(2) dopamine receptor [22]): 6.67 µM
5 | CCCN[C@@H]1CCc2c(C(=O)OC)cccc2[C@@H]1C | 102 | – | 0.253 | 1.59 | 0.287 | – | 120 | 2.33 | <75 | 117 | – | – | – | – | –
6 | CCCN[C@@H]1CCc2c(OS(=O)(=O)C(F)(F)F)cccc2[C@@H]1C | 167 | 6 | 0.171 | 0.621 | 3.07 | 62.2 | <135 | 2.56 | 92 | <130 | – | – | – | – | –
7 | CCCN[C@@H]1CCc2c(C(N)=O)cccc2[C@@H]1C | – | – | – | – | – | – | – | – | – | – | 215 | 105 | 109 | 97 | Ki [30]: 6.72 µM
8 | CCCN[C@@H]1CCc2c(OC)cccc2[C@@H]1C | – | 1 | – | – | – | 1.6 | – | 0.145 | – | – | – | – | – | – | Activity (Rattus norvegicus [32]): <402; Activity (Rattus norvegicus [33]): <272; Activity (Rattus norvegicus [34]): <251; Activity (Rattus norvegicus [35]): 121; Activity (Rattus norvegicus [36]): <354; Activity (Rattus norvegicus [37]): <346; Activity (Rattus norvegicus [38]): <220; Activity (Rattus norvegicus [39]): 127
9 | CCCN(CCC)[C@@H]1CCc2c(OC)cccc2[C@@H]1C | – | 2.5 | 0.0042 | – | – | 3.7 | – | 0.015 | – | – | – | – | – | – | Activity (Rattus norvegicus [33]): <191; Activity (Rattus norvegicus [34]): <214; Activity (Rattus norvegicus [35]): 119; Activity (Rattus norvegicus [36]): <200; Activity (Rattus norvegicus [38]): <176; Activity (Rattus norvegicus [40]): inactive
